Data taken from patent publication US10519117B2, “Crystal forms of 6-bromo-3-hydroxy-2-pyrazinecarboxamide” (FUJIFILM Toyama Chemical Co., Ltd., priority 2015, dated 2019).

Key:
Type in all cases: physicochemical
[1] = Storage stability of crystals of compound D at 60° C. and 75% relative humidity (Test Example 2), crystal form by infrared absorption spectrum; conditions: for change of crystal form on storage (summary in words) / stability on storage (summary in words): up to 8 weeks
Protocol: Type-A crystals, type-B crystals or type-C crystals of compound D were packed in double plastic bags and stored under conditions of 60° C. temperature and 75% relative humidity. Sampling was performed over time, and the crystal form was determined by infrared absorption spectrum measurement.

[2] = Standing of crystals at room temperature
Excerpt: It is difficult to store type-A crystals of compound D for a long period.
Type-C crystals of compound D can be produced by, for example, leaving type-A crystals of compound D to stand at room temperature.
The standing time may be one week to one year.

[3] = Solubility in organic solvents
Excerpt: Therefore, compound C is isolated according to any method such as neutralization crystallization in an aqueous solvent.

SMILES	change of crystal form on storage (summary in words) ([1]; 60° C., 75% relative humidity)	crystal form after storage ([1]; double plastic bags, 60° C., 75% relative humidity, 8 weeks)	change of crystal form when left to stand [2]	storage stability (general statement) [1]	stability on storage (summary in words) ([1]; 60° C., 75% relative humidity)	solubility in various organic solvents [3]
NC(=O)c1nc(Br)cnc1O [Type-A crystals, 6-bromo-3-hydroxy-2-pyrazinecarboxamide]	changed to type-C crystals	A + C(major)	converted into type-C crystals			
NC(=O)c1nc(Br)cnc1O [Type-B crystals, 6-bromo-3-hydroxy-2-pyrazinecarboxamide]	not changed			excellent in storage stability	stable	
NC(=O)c1nc(Br)cnc1O [Type-C crystals, 6-bromo-3-hydroxy-2-pyrazinecarboxamide]	not changed				stable	
NC(=O)c1nccnc1O [compound C, 3-hydroxy-2-pyrazinecarboxamide]						hardly soluble
